Experiments:
Type in all cases: cell-based
[1] = system: SARS-CoV-2 (B.1.1.529) BA.1 mutant strains; assay: Antiviral activity at the cellular level by RT-qPCR in Vero E6-TMPRSS2 cells
[2] = system: SARS-CoV-2 Alpha (B.1.1.7) mutant strains; assay: Antiviral activity by plaque method in Vero E6-TMPRSS2 cells: SARS-CoV-2 Alpha
[3] = system: SARS-CoV-2 Beta (B.1.351) mutant strains; assay: Antiviral activity by plaque method in Vero E6-TMPRSS2 cells: SARS-CoV-2 Beta

## COC[C@@H](NC(=O)C1CCC(F)(F)CC1)C(=O)N[C@H](Cc1ccccc1)C(=O)C(=O)NCc1nccs1 [Compound 395]
[1]
  inhibitory activity on replication of SARS-CoV-2 (B.1.1.529) in Vero E6-TMPRSS2 cells (in words): better inhibitory activity

## COC[C@@H](NC(=O)C1CCCC(F)(F)C1)C(=O)N[C@H](Cc1ccccc1)C(=O)C(=O)NCc1nccs1 (stereo partly drawn) [Compound 398, N—((R)-1-(((R)-3,4-dioxo-1-phenyl-4-((thiazole-2-ylmethyl)amino)butan-2-yl)amino)-3-methoxy-1-oxopropan-2-yl)-3,3-difluorocyclohexane-1-formamide]
[1]
  inhibitory activity on replication of SARS-CoV-2 (B.1.1.529) in Vero E6-TMPRSS2 cells (in words): better inhibitory activity
[2]
  anti-viral activity, times higher than Nirmatrelvir (PF-07321332): 40.95 times
[3]
  anti-viral activity, times higher than Nirmatrelvir (PF-07321332): 10.16 times

Reference: patent US20250064789A1, “KETOAMIDE DERIVATIVES AND PHARMACEUTICAL USES THEREOF” (priority 2022, published 2025)
